# “And” between values parts separate entries of the source, which are not always exact repeats. Equal entries are not always repeated. Inconclusive results and toxic doses are left out.
# System: BDF1 mice, L1210 leukemia sc, survival T/C
# Assay: NCI In Vivo Anticancer Drug Screen. Data for tumor model L1210 Leukemia (subcutaneous) in B6D2F1 (BDF1) mice
# Details: higher = longer survival
# Outline: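 Expressed as T/C: measurement in compound-treated, tumor-bearing mice relative to vehicle-treated control mice, based on survival or tumor size.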
# [1] = endpoint: median survival time, dose: 3.0 mg/kg/injection, schedule: Q01DX Z (sc), vehicle: saline
# [2] = endpoint: median survival time, dose: 5.0 mg/kg/injection, schedule: Q01DX Z (sc), vehicle: saline
# [3] = endpoint: median survival time, dose: 14.0 mg/kg/injection, schedule: Q01DX Z (sc), vehicle: saline
# [4] = endpoint: median survival time, dose: 23.0 mg/kg/injection, schedule: Q01DX Z (sc), vehicle: saline
smiles,measurement,setting,value
O=C(O)c1[nH]c(=O)[nH]c(=O)c1F,T/C,"endpoint: median survival time, dose: 2.5 mg/kg/injection, schedule: Q01DX Z (sc), vehicle: methylcellulose (MC)",105 % of control
same,T/C,"endpoint: median survival time, dose: 8.0 mg/kg/injection, schedule: Q01DX Z (sc), vehicle: saline",166 % of control
same,T/C,"endpoint: median survival time, dose: 10.0 mg/kg/injection, schedule: Q01DX Z (sc), vehicle: methylcellulose (MC)",158 % of control
same,T/C,"endpoint: median survival time, dose: 16.0 mg/kg/injection, schedule: Q01DX Z (sc), vehicle: saline",150 % of control
same,T/C,"endpoint: median survival time, dose: 20.0 mg/kg/injection, schedule: Q01DX Z (sc), vehicle: methylcellulose (MC)",164 % of control
same,T/C,"endpoint: median survival time, dose: 32.0 mg/kg/injection, schedule: Q01DX Z (sc), vehicle: saline",166 % of control
same,T/C,"endpoint: median survival time, dose: 40.0 mg/kg/injection, schedule: Q01DX Z (sc), vehicle: methylcellulose (MC)",176 % of control
same,T/C,"endpoint: median survival time, dose: 64.0 mg/kg/injection, schedule: Q01DX Z (sc), vehicle: saline",155 % of control
same,T/C,"endpoint: median survival time, dose: 128.0 mg/kg/injection, schedule: Q01DX Z (sc), vehicle: saline",155 % of control
same,T/C,"endpoint: median survival time, dose: 256.0 mg/kg/injection, schedule: Q01DX Z (sc), vehicle: saline",150 % of control
COC(=O)[C@@H]1c2cc3c(c(O)c2[C@@H](OC2OC(C)C(OC)C(C)(OC)C2OC)C[C@]1(C)O)C(=O)c1c(O)cc2c(c1C3=O)O[C@H]1O[C@]2(C)[C@H](O)[C@@H](N(C)C)[C@@H]1O (stereo partly specified),T/C,[1],105 % of control
same,T/C,[2],100 % of control
same,T/C,"endpoint: median survival time, dose: 8.4 mg/kg/injection, schedule: Q01DX Z (sc), vehicle: saline",100 % of control
same,T/C,[3],90 % of control
same,T/C,[4],90 % of control
C=CC(CO)N1CC1 (stereo unspecified),T/C,"endpoint: median survival time, dose: 1.08 mg/kg/injection, schedule: Q01DX Z (sc), vehicle: saline",100 % of control
same,T/C,"endpoint: median survival time, dose: 1.8 mg/kg/injection, schedule: Q01DX Z (sc), vehicle: saline",100 % of control
same,T/C,"endpoint: median survival time, dose: 1.8 mg/kg/injection, schedule: Q02DX Z (sc), vehicle: saline",100 % of control
same,T/C,[1],100 % of control
same,T/C,"endpoint: median survival time, dose: 3.0 mg/kg/injection, schedule: Q02DX Z (sc), vehicle: saline",105 % of control
same,T/C,[2],90 % of control and 100 % of control
same,T/C,"endpoint: median survival time, dose: 5.0 mg/kg/injection, schedule: Q02DX Z (sc), vehicle: saline",100 % of control
same,T/C,"endpoint: median survival time, dose: 5.0 mg/kg/injection, schedule: Q## X Z (sc), vehicle: saline",100 % of control
same,T/C,"endpoint: median survival time, dose: 7.8 mg/kg/injection, schedule: Q01DX Z (sc), vehicle: saline",100 % of control
same,T/C,"endpoint: median survival time, dose: 8.4 mg/kg/injection, schedule: Q01DX001 (sc), vehicle: saline",100 % of control
same,T/C,"endpoint: median survival time, dose: 8.4 mg/kg/injection, schedule: Q02DX Z (sc), vehicle: saline",100 % of control
same,T/C,"endpoint: median survival time, dose: 8.4 mg/kg/injection, schedule: Q## X Z (sc), vehicle: saline",100 % of control
same,T/C,"endpoint: median survival time, dose: 14.0 mg/kg/injection, schedule: Q01DX001 (sc), vehicle: saline",100 % of control
same,T/C,[3],100 % of control
same,T/C,"endpoint: median survival time, dose: 14.0 mg/kg/injection, schedule: Q02DX Z (sc), vehicle: saline",100 % of control
same,T/C,"endpoint: median survival time, dose: 14.0 mg/kg/injection, schedule: Q## X Z (sc), vehicle: saline",100 % of control
same,T/C,"endpoint: median survival time, dose: 23.0 mg/kg/injection, schedule: Q01DX001 (sc), vehicle: saline",100 % of control
same,T/C,[4],90 % of control and 110 % of control
same,T/C,"endpoint: median survival time, dose: 23.0 mg/kg/injection, schedule: Q02DX Z (sc), vehicle: saline",100 % of control
same,T/C,"endpoint: median survival time, dose: 23.0 mg/kg/injection, schedule: Q## X Z (sc), vehicle: saline",100 % of control
same,T/C,"endpoint: median survival time, dose: 36.0 mg/kg/injection, schedule: Q01DX Z (sc), vehicle: saline",105 % of control
same,T/C,"endpoint: median survival time, dose: 37.0 mg/kg/injection, schedule: Q02DX Z (sc), vehicle: saline",100 % of control
same,T/C,"endpoint: median survival time, dose: 39.0 mg/kg/injection, schedule: Q01DX001 (sc), vehicle: saline",110 % of control
same,T/C,"endpoint: median survival time, dose: 39.0 mg/kg/injection, schedule: Q01DX Z (sc), vehicle: saline",95 % of control and 100 % of control
same,T/C,"endpoint: median survival time, dose: 39.0 mg/kg/injection, schedule: Q## X Z (sc), vehicle: saline",100 % of control
same,T/C,"endpoint: median survival time, dose: 65.0 mg/kg/injection, schedule: Q01DX001 (sc), vehicle: saline",120 % of control
same,T/C,"endpoint: median survival time, dose: 65.0 mg/kg/injection, schedule: Q02DX Z (sc), vehicle: saline",100 % of control
same,T/C,"endpoint: median survival time, dose: 65.0 mg/kg/injection, schedule: Q## X Z (sc), vehicle: saline",120 % of control
same,T/C,"endpoint: median survival time, dose: 108.0 mg/kg/injection, schedule: Q01DX001 (sc), vehicle: saline",115 % of control
same,T/C,"endpoint: median survival time, dose: 108.0 mg/kg/injection, schedule: Q## X Z (sc), vehicle: saline",115 % of control
O=C(Nc1ccc(C2=NCCN2)cc1)c1ccc(C(=O)Nc2ccc(C3=NCCN3)cc2)c(NC(=O)c2ccc(C(=O)Nc3cc(C(=O)Nc4ccc(C5=NCCN5)cc4)ccc3C(=O)Nc3ccc(C4=NCCN4)cc3)cc2)c1,T/C,"endpoint: median survival time, dose: 23.0 mg/kg/injection, schedule: Q01DX Z (sc), vehicle: water",110 % of control
same,T/C,"endpoint: median survival time, dose: 39.0 mg/kg/injection, schedule: Q01DX Z (sc), vehicle: water",100 % of control
same,T/C,"endpoint: median survival time, dose: 65.0 mg/kg/injection, schedule: Q01DX Z (sc), vehicle: water",100 % of control
same,T/C,"endpoint: median survival time, dose: 108.0 mg/kg/injection, schedule: Q01DX Z (sc), vehicle: water",100 % of control
same,T/C,"endpoint: median survival time, dose: 180.0 mg/kg/injection, schedule: Q01DX Z (sc), vehicle: water",100 % of control
same,T/C,"endpoint: median survival time, dose: 300.0 mg/kg/injection, schedule: Q01DX Z (sc), vehicle: water",100 % of control
CC(=O)NC(CS)C(=O)O (stereo unspecified),T/C,"endpoint: median survival time, dose: 600.0 mg/kg/injection, schedule: Q01DX001 (ip), vehicle: saline",94 % of control and 97 % of control
same,T/C,"endpoint: median survival time, dose: 600.0 mg/kg/injection, schedule: Q01DX015 (ip), vehicle: saline",94 % of control and 97 % of control
same,T/C,"endpoint: median survival time, dose: 600.0 mg/kg/injection, schedule: Q07DX003 (ip), vehicle: saline",94 % of control and 97 % of control
same,T/C,"endpoint: median survival time, dose: 1000.0 mg/kg/injection, schedule: Q01DX001 (ip), vehicle: saline",94 % of control and 96 % of control
same,T/C,"endpoint: median survival time, dose: 1000.0 mg/kg/injection, schedule: Q01DX015 (ip), vehicle: saline",103 % of control and 105 % of control
same,T/C,"endpoint: median survival time, dose: 1000.0 mg/kg/injection, schedule: Q07DX003 (ip), vehicle: saline",99 % of control and 100 % of control
CN(Cc1cnc2nc(N[Si](C)(C)C)nc(N[Si](C)(C)C)c2n1)c1ccc(C(=O)NC(CCC(=O)O[Si](C)(C)C)C(=O)O[Si](C)(C)C)cc1 (stereo unspecified),T/C,"endpoint: mean survival time, dose: 1.0 mg/kg/injection, schedule: Q01DX009 (ip), vehicle: Klucel (hydroxypropylcellulose) (HPC)",150 % of control
same,T/C,"endpoint: mean survival time, dose: 2.0 mg/kg/injection, schedule: Q01DX009 (ip), vehicle: Klucel (hydroxypropylcellulose) (HPC)",169 % of control
same,T/C,"endpoint: mean survival time, dose: 4.0 mg/kg/injection, schedule: Q01DX009 (ip), vehicle: Klucel (hydroxypropylcellulose) (HPC)",176 % of control
same,T/C,"endpoint: mean survival time, dose: 8.0 mg/kg/injection, schedule: Q01DX009 (ip), vehicle: Klucel (hydroxypropylcellulose) (HPC)",169 % of control
same,T/C,"endpoint: mean survival time, dose: 8.0 mg/kg/injection, schedule: Q04DX003 (ip), vehicle: Klucel (hydroxypropylcellulose) (HPC)",156 % of control
same,T/C,"endpoint: mean survival time, dose: 16.0 mg/kg/injection, schedule: Q01DX009 (ip), vehicle: Klucel (hydroxypropylcellulose) (HPC)",119 % of control
same,T/C,"endpoint: mean survival time, dose: 32.0 mg/kg/injection, schedule: Q04DX003 (ip), vehicle: Klucel (hydroxypropylcellulose) (HPC)",160 % of control
same,T/C,"endpoint: mean survival time, dose: 64.0 mg/kg/injection, schedule: Q04DX003 (ip), vehicle: Klucel (hydroxypropylcellulose) (HPC)",160 % of control
CCCNc1ncnc2[nH]ncc12,T/C,"endpoint: median survival time, dose: 64.8 mg/kg/injection, schedule: Q01DX Z (sc), vehicle: methylcellulose (MC)",120 % of control
same,T/C,"endpoint: median survival time, dose: 108.0 mg/kg/injection, schedule: Q01DX Z (sc), vehicle: methylcellulose (MC)",110 % of control
same,T/C,"endpoint: median survival time, dose: 180.0 mg/kg/injection, schedule: Q01DX Z (sc), vehicle: methylcellulose (MC)",100 % of control
same,T/C,"endpoint: median survival time, dose: 300.0 mg/kg/injection, schedule: Q01DX Z (sc), vehicle: methylcellulose (MC)",100 % of control
same,T/C,"endpoint: median survival time, dose: 500.0 mg/kg/injection, schedule: Q01DX Z (sc), vehicle: methylcellulose (MC)",100 % of control
CS(=O)(=O)Nc1ccc(Nc2c3ccccc3nc3cc([N+](=O)[O-])ccc23)cc1,T/C,"endpoint: mean survival time, dose: 1.25 mg/kg/injection, schedule: Q01DX009 (ip), vehicle: Klucel (hydroxypropylcellulose) (HPC)",108 % of control
same,T/C,"endpoint: mean survival time, dose: 1.25 mg/kg/injection, schedule: Q01DX009 (sc), vehicle: Klucel (hydroxypropylcellulose) (HPC)",121 % of control
same,T/C,"endpoint: mean survival time, dose: 2.5 mg/kg/injection, schedule: Q01DX009 (ip), vehicle: Klucel (hydroxypropylcellulose) (HPC)",107 % of control
same,T/C,"endpoint: mean survival time, dose: 2.5 mg/kg/injection, schedule: Q01DX009 (sc), vehicle: Klucel (hydroxypropylcellulose) (HPC)",108 % of control
same,T/C,"endpoint: mean survival time, dose: 5.0 mg/kg/injection, schedule: Q01DX009 (ip), vehicle: Klucel (hydroxypropylcellulose) (HPC)",106 % of control
same,T/C,"endpoint: mean survival time, dose: 5.0 mg/kg/injection, schedule: Q01DX009 (sc), vehicle: Klucel (hydroxypropylcellulose) (HPC)",112 % of control

# From PubChem BioAssay AID250 (DTP/NCI, 2004)
